This note sets out measurements from patent publication US10106542B2, “Substituted 6,7-dihydropyrazolo[1,5-a]pyrazines as negative allosteric modulators of mGluR2 receptors” (Janssen Pharmaceutica NV, priority 2013, dated 2018).

In general, ED50 refers to the dose at which the effect has come halfway, by size or by number of responders. Broadly, the melting point is the temperature of the solid-liquid transition. One may read the Emax as the size of the effect at its maximum, as opposed to the concentration needed.

One data set has as its system rats. Briefly: Reversal of the effect of the mGluR2 PAM JNJ-42153605 on scopolamine-induced hyperlocomotion. The class given is in vivo. The note with it: Rattus norvegicus, 1 h, test compound 60 min before recording, criterion total distance >1500 cm. As to the method: 2) Reversal of the Effect of the mGluR2 PAM JNJ-42153605 on Scopolamine-Induced Hyperlocomotion Apparatus
Motor activity was measured in microprocessor-based motor activity arenas (closed gray PVC cylinders with a height of 39 cm and a diameter of 31 cm). Each arena was placed on an infrared LED (8×8 LEDs) lit box (white PVC squared box; 40×40 cm^2; height 12.5 cm. An infrared-sensitive tube camera and a white light source were mounted to the ceiling above the observation chamber to track the animal. The total distance traveled (cm) was recorded and analyzed using the Noldus Ethovision XT Video Tracking System (Version 7.0.418; Noldus, Wageningen, The Netherlands). The intensity of the light within the activity cages (measured in the centre at the level of the floor) ranged between 4 and 8 LUX.
The rats were pretreated with test compound or vehicle at 60 min before the start of the activity recordings and placed into individual cages. The rats were challenged with JNJ-42153605 (3-(cyclopropylmethyl)-7-(4-phenylpiperidin-1-yl)-8-(trifluoromethyl)[1,2,4]triazolo[4,3-a]pyridine; WO2010/130424; Cid et al. J. Med. Chem. 2012, 55, 8770-8789) (20 mg/kg, i.v.) 30 min before the start of the activity recording combined with scopolamine (0.16 mg/kg, i.v.) just before the start of the activity measurements Immediately after the injection of scopolamine, the rats were placed into the activity monitors and total distance travelled over the first 30 min was measured.
Animals receiving the combination of JNJ-42153605 and scopolamine (n=433) almost always travelled a distance of less than 1500 cm (<1500 cm) (only 2.5% of the control rats travelled a distance of more than 1500 cm (>1500 cm)). On the other hand, animals challenged with scopolamine alone (n=215) always travelled a total distance of more than 1500 cm (>1500 cm) and almost always (in 95.8% of the rats) a distance of more than 4400 cm (>4400 cm). […] For reversal of the inhibitory effect of JNJ-42153605 on the scopolamine-induced hyperlocomotion, two all-or-none criteria were adopted: (1) reversal: total distance >1500 cm; (2) normalization: total distance >4400 cm.

The test system of the next data set is Wiga rats. Briefly: Reserpine interaction test in rats. The data set is classed as in vivo, rat. The note with it: for ED50: Rattus norvegicus, po, Time 60, reserpine 10 mg/kg SC, Wiga rats, read-out: ED50, reversal of reserpine-induced ptosis. As to the method: 4) Reserpine Interaction Test in Rats
It was investigated to what extent the mydriatic action of test compounds was sufficient to counteract the miosis induced by the monoamines-depleting agent reserpine (10 mg/kg; SC) in Wiga rats.
The effects are illustrated in FIG. 3. […] The reference mGlu2 NAMs RO-4995819 (40 mg/kg, p.o.), RO-4491533 (40 mg/kg, p.o.; 10 mg/kg, s.c.) and [CAS 579473-69-1]

The target of the next data set is T1, human mGlu2 receptor (Homo sapiens, UniProt Q14416).
T1 construct: expressed in transfected cells; host or cells: CHO cells (membrane preparation)
T1 sequence (Q14416 19-872): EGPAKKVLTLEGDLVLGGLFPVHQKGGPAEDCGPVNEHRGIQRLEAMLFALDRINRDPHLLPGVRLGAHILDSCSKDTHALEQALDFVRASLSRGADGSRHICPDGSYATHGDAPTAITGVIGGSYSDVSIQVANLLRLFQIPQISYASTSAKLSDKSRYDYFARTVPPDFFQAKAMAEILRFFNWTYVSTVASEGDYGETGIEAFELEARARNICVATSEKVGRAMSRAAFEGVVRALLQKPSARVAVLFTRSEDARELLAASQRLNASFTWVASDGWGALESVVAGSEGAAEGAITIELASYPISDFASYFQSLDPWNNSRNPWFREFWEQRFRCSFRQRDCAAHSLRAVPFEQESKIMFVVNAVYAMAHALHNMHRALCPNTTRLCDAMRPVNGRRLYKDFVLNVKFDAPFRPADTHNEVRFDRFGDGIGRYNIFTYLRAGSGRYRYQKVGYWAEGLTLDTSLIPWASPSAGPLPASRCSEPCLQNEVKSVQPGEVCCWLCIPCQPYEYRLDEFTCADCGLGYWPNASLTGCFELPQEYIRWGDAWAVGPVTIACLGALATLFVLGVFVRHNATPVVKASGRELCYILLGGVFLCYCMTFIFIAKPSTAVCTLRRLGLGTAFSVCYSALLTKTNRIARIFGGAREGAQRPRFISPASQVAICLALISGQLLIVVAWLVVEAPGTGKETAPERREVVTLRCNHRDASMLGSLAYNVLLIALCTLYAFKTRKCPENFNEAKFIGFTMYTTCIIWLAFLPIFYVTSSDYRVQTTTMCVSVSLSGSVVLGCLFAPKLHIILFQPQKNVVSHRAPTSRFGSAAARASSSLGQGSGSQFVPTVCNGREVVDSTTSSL
In words: [35S]GTPγS binding assay (mGluR2 negative allosteric modulation). The class given is biochemical. As to conditions: for IC50: membranes from CHO cells transfected with human mGlu2 receptor, glutamate 60 μM, pIC50 = −log IC50 (M), read-out: GTPγS - hmGluR2 anGT pIC50 (converted); for Emax: relative maximal effect: maximal % inhibition relative to the control glutamate response, read-out: GTPγS - hmGluR2 anGT Emax. The gist of the method:
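Membranes from butyrate-stimulated CHO cells expressing human mGlu2; 7 μg protein in HEPES pH 7.4, 100 mM NaCl, 3 mM MgCl2, 10 μM GDP, 10 μg/ml saponin. Compound tested against EC80-equivalent glutamate; 0.1 nM [35S]GTPγS, 30 min, 30 °C; filtration, scintillation counting. Data as % of control glutamate response.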
Background: GTPγS is a poorly hydrolysed GTP analogue; its binding reports G protein activation.

Structures are written as SMILES.

As to `CCOc1nc(N2C[C@H](C)n3ncc(-c4ccnc(C)c4)c3C2=O)ccc1C(F)(F)F` (single isomer, unassigned) [compound 200], the melting point came to 122.3 °C. Also, the ED50 in the data set with rats (Route PO) turned out to be 3.15 mg/kg. Further, in the data set with Wiga rats, the ED50 was 0.13 mg/kg. At human mGlu2 receptor, the IC50 is 5.89e-09 M and the Emax was 105%.

Take `Cc1cc(-c2cccc(C3=Nc4cc(C)c(C(F)(F)F)cc4NC(=O)C3)c2)cc(C)n1` [RO-4491533, reference compound]: the “interactions with reserpine (mydriasis, reversal of ptosis, miosis, sedation)” value is on record as “devoid of these interactions with reserpine” in the data set on Wiga rats (10 mg/kg, s.c.) and “devoid of these interactions with reserpine” in the data set with Wiga rats (40 mg/kg, p.o.).

Take `Nc1ccc(C#Cc2cnn3c(C(F)(F)F)cc(-c4ccc(C(F)(F)F)cc4)nc23)cn1` [RO-4995819, reference compound]: the “interactions with reserpine (mydriasis, reversal of ptosis, miosis, sedation)” value in the data set on Wiga rats (40 mg/kg, p.o.) is “devoid of these interactions with reserpine”.

Regarding `COCc1cc(-c2cnn3c2C(=O)N(c2ccc(C(F)(F)F)cc2)C[C@@H]3C)ccn1` [compound 22], the ED50 with Wiga rats was 0.13 mg/kg. Besides, at human mGlu2 receptor, the IC50 was 6.92e-08 M and the Emax was determined as 104%.

Take `Cc1cncc(-c2cnn3c2C(=O)N(c2ccc(C(F)(F)F)cc2)C[C@@H]3C)c1` [compound 24]: in the data set with Wiga rats, the ED50 is no less than 10 mg/kg.

Consider `COc1c(C)cc(N2C[C@H](C)n3ncc(-c4ccnc(C)c4)c3C2=O)cc1C` [compound 34], for which the melting point is greater than 300 °C. In addition, the ED50 in the data set with Wiga rats is 0.8 mg/kg. For the same molecule, at human mGlu2 receptor, the IC50 was 5.62e-07 M and the Emax is 100%.

With `COc1ccc(N2C[C@H](C)n3ncc(-c4ccnc(C)c4)c3C2=O)cc1F` [compound 35], in the data set on Wiga rats, the ED50 was greater than 10 mg/kg. Moreover, on human mGlu2 receptor, the IC50 is 6.03e-07 M and the Emax stood at 100%.

`Cc1ccc(-c2cnn3c2C(=O)N(c2ccc(C(F)(F)F)cc2)C[C@@H]3C)cn1` [compound 36] showed a melting point of 128.2 °C. In addition, the ED50 in the data set with Wiga rats stood at 5 mg/kg. On human mGlu2 receptor, the IC50 was 8.32e-07 M and the Emax worked out at 100%.

As to `COc1ccc(N2C[C@H](C)n3ncc(-c4ccnc(C)c4)c3C2=O)cc1` [compound 38], the ED50 in the data set with Wiga rats amounted to 5 mg/kg. On human mGlu2 receptor, the IC50 is 9.55e-07 M and the Emax came out at 103%.

`Cc1cc(-c2cnn3c2C(=O)N(c2ccc(C(F)(F)F)cc2)CC3)ccn1` [compound 40] displayed a melting point of 137 °C. For the same molecule, the ED50 in the data set on Wiga rats is 0.32 mg/kg. Besides, on human mGlu2 receptor, the IC50 is 1.48e-06 M and the Emax came out at 105%.

With `COc1ccc(N2C[C@H](C)n3ncc(-c4ccnc(C)c4)c3C2=O)cc1OC` [compound 41], the melting point came to 166.9 °C. Further, in the data set on Wiga rats, the ED50 worked out at 3.15 mg/kg. Besides, at human mGlu2 receptor, the IC50 was 3.55e-06 M and the Emax came out at 95%.

As for `Cc1ccc(N2C[C@H](C)n3ncc(-c4ccnc(C)c4)c3C2=O)cc1` [compound 78], the ED50 in the data set with Wiga rats is no less than 10 mg/kg.

On to `Cc1cc(-c2cnn3c2C(=O)N(c2cccc(OC(C)C)c2)C[C@@H]3C)ccn1` [compound 79], for which the ED50 with Wiga rats turned out to be 5 mg/kg. Besides, at human mGlu2 receptor, the IC50 is 5.13e-07 M and the Emax turned out to be 104%.

Consider `Cc1cc(-c2cnn3c2C(=O)N(c2ccc(C#N)cc2)C[C@@H]3C)ccn1` [compound 80], for which, in the data set on Wiga rats, the ED50 is greater than 2.5 mg/kg.

Regarding `CCOc1ccc(N2C[C@H](C)n3ncc(-c4ccnc(C)c4)c3C2=O)cc1.Cl` [compound 81, (7S)-5-(4-Ethoxyphenyl)-7-methyl-3-(2-methyl-4-pyridyl)-6,7-dihydropyrazolo[1,5-a]pyrazin-4-one hydrochloride salt], in the data set with Wiga rats, the ED50 amounted to 5 mg/kg. Besides, on human mGlu2 receptor, the IC50 is 5.37e-07 M and the Emax amounted to 103%.

For the molecule `Cc1cc(-c2cnn3c2C(=O)N(c2cc(F)cc(F)c2)C[C@@H]3C)ccn1` [compound 82], the ED50 with Wiga rats was 5 mg/kg. Also, on human mGlu2 receptor, the IC50 is 6.31e-07 M and the Emax came out at 101%.

Regarding `CCOc1cccc(N2C[C@H](C)n3ncc(-c4ccnc(C)c4)c3C2=O)c1` [compound 83], the ED50 in the data set on Wiga rats is 5 mg/kg. Also, at human mGlu2 receptor, the IC50 was 7.94e-07 M and the Emax turned out to be 104%.

Molecule `C[C@H]1CN(c2ccc(C(F)(F)F)cc2)C(=O)c2c(-c3ccnc(C#N)c3)cnn21` [compound 127, 4-[(7S)-7-Methyl-4-oxo-5-[4-(trifluoromethyl)phenyl]-6,7-dihydropyrazolo[1,5-a]pyrazin-3-yl]pyridine-2-carbonitrile] registered a melting point of 155.1 °C. Besides, the ED50 in the data set on rats (Route PO) is 1.99 mg/kg. Moreover, on human mGlu2 receptor, the IC50 is 2.75e-08 M and the Emax was 103%.

In turn, `Cc1cc(-c2cnn3c2C(=O)N(c2cccc(C(C)O)c2)C[C@@H]3C)ccn1` (stereo partly drawn) [compound 148] came in with a melting point of 149.7 °C. The ED50 with Wiga rats amounted to 1.99 mg/kg. Further, on human mGlu2 receptor, the IC50 was 5.62e-06 M and the Emax was found to be 100%.

As for `Cc1cc(-c2cnn3c2C(=O)N(c2ccc(OC(F)(F)F)cc2)C[C@@H]3C)ccn1` [compound 152], the melting point was 105.4 °C. For the same molecule, the ED50 with rats (Route PO) is 1.99 mg/kg. In addition, on human mGlu2 receptor, the IC50 is 1e-08 M and the Emax was determined as 105%.

The molecule `C[C@H]1CN(c2ccc(C(F)(F)F)cc2)C(=O)c2c(-c3ccnc(N(C)C)c3)cnn21` [compound 166] yielded a melting point of 99.8 °C. Besides, the ED50 with rats (Route PO) was 0.5 mg/kg. In addition, the ED50 in the data set on rats (Route SC) was no less than 10 mg/kg. In addition, at human mGlu2 receptor, the IC50 was 2.51e-09 M and the Emax came out at 102%.

Regarding `COc1cc(-c2cnn3c2C(=O)N(c2ccc(C(F)(F)F)c(OC)c2)C[C@@H]3C)ccn1` [compound 180], the melting point turned out to be 76.8 °C. The ED50 in the data set on rats (Route PO) was no less than 2.5 mg/kg. Also, at human mGlu2 receptor, the IC50 was 1.32e-08 M and the Emax was found to be 106%.

On to `CNc1cc(-c2cnn3c2C(=O)N(c2ccc(C(F)(F)F)c(F)c2)C[C@@H]3C)ccn1` [compound 182], for which the melting point turned out to be 67.8 °C. Besides, the ED50 in the data set on rats (Route PO) came out at 1.99 mg/kg. At human mGlu2 receptor, the IC50 is 8.32e-09 M and the Emax worked out at 106%.

On to `CCOc1nc(N2C[C@H](C)n3ncc(-c4ccnc(C)c4)c3C2=O)ccc1Cl` [compound 201], for which the melting point is 119.7 °C. In the data set with rats (Route PO), the ED50 is greater than 2.5 mg/kg. Further, at human mGlu2 receptor, the IC50 is 8.32e-09 M and the maximum response (Emax) is 105%.

`CNc1cc(-c2cnn3c2C(=O)N(c2ccc(C(F)(F)F)c(OC)n2)C[C@@H]3C)ccn1` [compound 237]: the melting point is 125.82 °C (dec.). Moreover, the ED50 in the data set on rats (Route PO) stood at 1.99 mg/kg. Also, at human mGlu2 receptor, the IC50 is 3.16e-09 M and the Emax amounted to 111%.
